Square brackets hold non-standard residues; d marks the D form. Ends that are not written are not given here.

The source of these data is patent publication US11331364B2, “Use for JNK inhibitor molecules for treatment of various diseases” (Xigen Inflammation Ltd., priority 2014, dated 2022).

This assay concerns Hela cells. Put plainly: Internalization of transporter constructs, 24 hours, fluorescence of cell extracts. It is filed as cell-based. Conditions: FIG. 6; Y in position 2. The procedure: The transporter sequences analyzed correspond to SEQ ID NOs: 52-94 plus SEQ ID NOs: 45, 47, 46, 43 and 99 (FIG. 6A) and SEQ ID NOs: 100-147 (FIG. 6B). […] Hela cells were incubated 24 hours in 96 well plate with […] of the respective transporters. The cells were then washed twice with an acidic buffer (0.2M Glycin, 0.15M NaCl, pH 3.0) and twice with PBS. Cells were broken by the addition of RIPA lysis buffer. The relative amount of internalized peptide was then determined by reading the fluorescence intensity (Fusion Alpha plate reader; PerkinElmer) of each extract followed by background subtraction.
Hela cells were incubated 24 hours in 96 well plate with […] of the r3-L-TAT-derived transporters. The cells were then washed twice with an acidic buffer (0.2M Glycin, 0.15M NaCl, pH 3.0) and twice with PBS. Cells were broken by the addition of RIPA lysis buffer. The relative amount of internalized peptide was then determined by reading the fluorescence intensity (Fusion Alpha plate reader; PerkinElmer) of each extract followed by background subtraction

Turning to “rYKRrQRRr ([dR]YKR[dR]QRR[dR]) [SEQ ID NO: 142]”, the transporter activity entry is “highest transporter activity”.
